Results reported in a melting point compilation (Tetko et al.; mined from patent text by program, amines drawn as free bases though some values may be those of a salt).

| Compound | melting point [°C] |
| --- | --- |
| NC(=S)Nc1ncccn1 | 262 to 264 |
| CCSN(C)C(=O)Nc1ccc(Cl)c(Cl)c1 | 71 |
| NC(=S)c1ncn2c1[C@@H]1CCN1C(=O)c1c(Cl)cccc1-2 | 250 to 253 |
| CNC(=O)N(O)Cc1cccs1 | 108 |
| CC(C)(C)OC(=O)N[C@@H](COCc1ccccc1)C(=O)N[C@H](CCC(=O)OCc1ccccc1)C(N)=O | 65 to 66 |
| COC(=O)C=Cc1ccc(C)s1 | 59 to 60 |
| CN(CCN1CCN(Cc2ccc(C(F)(F)F)cc2)CC1)C[C@@]1(C)Cn2cc([N+](=O)[O-])nc2O1 | 102 to 104 |
| C=CCC(NC(=O)c1ccc(OC)cc1)C(=O)O (stereo not given) | 121 to 124 |
| N#Cc1cnn(-c2ccc(C=O)cc2)n1 | 148 to 150 |
| CCOC(=O)C(CC(=O)O)(C(=O)OCC)n1cccc1 | 93 to 94 |
| COC(=O)CCc1ccc(CCc2csc(NC(C)=O)n2)s1 | 104 to 106 |
| CCCn1c(=O)c2[nH]c(C(C)(C)C)nc2n(CCN(C)C(C)=O)c1=O | 149 to 152 |
| Nc1cc(C(F)(F)F)cc(N)c1Cl | 96 |
| COc1cc(CCN)ccc1O | 156 to 158 |
| O=C(OCCN1CCNC1=Nc1ccccc1N1CCOCC1)c1ccccc1 | 92 to 94 |
| CS(=O)(=O)c1ccc(-c2ccc3cnc(Nc4ccc(C5CCN(CC(N)=O)CC5)cc4)nn23)cc1 | 310 |
| CCOC(=O)c1sc(CC)nc1C(F)(F)F | 30 to 32 |
| O=c1n(CCCC2CCCCC2)ccn1-c1ccc([N+](=O)[O-])cc1 | 153 to 156 |
| Nc1ccccc1N(C=O)CCCCO | 77 to 79 |
| CN1Cc2c(C#CC(C)(C)O)ncn2-c2cccc(Br)c2C1=O | 207 to 208 |
| COc1ccc(C(F)(F)F)cc1N1CCN(CCCNC(=O)c2cccc3c(=O)c(C)c(-c4ccccc4)oc23)CC1 | 173 to 176 |
| CC(=O)O[C@H]1C[C@@H](n2cnc3c(Cl)ncnc32)[C@H](O)[C@@H]1O (racemic) | 103 to 104 |
| CCC(=O)Oc1cccc2c(-c3ccccc3)c3cccc(OC(=O)CC)c3c(OC(=O)CC)c12 | 216 |
| CCC(C(=O)C(C)C(O)C(C)CCc1c(N=Nc2ccccc2)cc(C)c(O)c1C(=O)O)C1OC(CC)(C2CCC(O)(CC)C(C)O2)CC1C (stereo not given) | 212 to 215 |
| COC(=Cc1ncn(C(c2ccccc2)(c2ccccc2)c2ccccc2)c1C)C(=O)c1cccc2ccccc12 | 220 to 222 |

The remaining lines, values ahead:

| melting point [°C] | Compound |
| --- | --- |
| 47 to 48 | C=CC(O)c1ccc2cc(OCCCCCC)ccc2c1 (stereo not given) |
| 336 to 338 | O=c1[nH]nc2ccc(-c3ccc(Cl)c(Cl)c3)nn12 |
| 120 to 121 | COc1cccc(C(=C/C=C/C(=O)NC(C)(C)CCCc2cccnc2)c2cccc(OC)c2)c1 |
| 144 to 146 | Cc1ccc2oc([N+](=O)[O-])c(-c3ccccc3)c2c1 |
| 144 to 145 | CC(=O)NS(=O)(=O)c1ccc(-c2c(-c3cccc(F)c3)noc2C)cc1 |
| 152 to 153 | O=C(O)CCc1c(-c2ccccc2)noc1-c1ccccc1 |
| 118 to 120 | CC1Cc2cc(Cl)ccc2C(c2ccc([N+](=O)[O-])cc2)O1 (stereo not given) |
| 189 to 190 | COc1ccc(C2Cc3c(cccc3C(F)(F)F)NC(=O)C2CO)cc1 (stereo not given) |
| 246 to 247 | COc1cc(-c2cnc3[nH]cc(C(=O)C4(C)CCCCC4)c3n2)cc(OC)c1OC |
| 48 | COc1cccc(NC(=O)c2ccc(C)cc2)c1C(C)=O |
| 195 to 197 | COc1cc(-c2cnc3ccccc3n2)cc([N+](=O)[O-])c1O |
| 115 to 117 | NCCc1ccc(Nc2ncc3c(n2)-c2ccccc2C(c2cccc(Br)c2)C3)cc1 (stereo not given) |
| 141 to 142 | CCOC(=O)c1sc2cc(OCc3ccccc3)ccc2c1S(=O)c1ccccc1 (stereo not given) |
| 159 to 161 | Cc1nn(-c2ccccc2)c(-c2ccccc2)c1CC(=O)O |
| 90 to 92 | CCCOc1nc2cccc(C(=O)OCC)c2n1Cc1ccc(-c2ccccc2C#N)cc1 |
